# Measurements: patent publication US20250074920A1, “MACROCYCLIC COMPOUNDS AND USE AS KINASE INHIBITORS” (BLOSSOMHILL THERAPEUTICS, INC., priority 2022, published 2025)
# Experiments:
# Assay in all cases: KINOMEscan kinase binding assay
# LYN = settings: at 1 μM
# Method in brief: (§1)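 qPCR read-out of kinase retained on ligand-coated streptavidin beads. Binding buffer: 20% SeaBlock, 0.17×PBS, 0.05% Tween 20, 6 mM DTT; 1 h RT with shaking. % Ctrl = (test − positive control)/(negative control − positive control)×100; lower values mean stronger binding.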
# ERBB4 = settings: at 1 μM
# Method in brief: as §1
# FGFR1 = settings: at 1 μM
# Method in brief: as §1
# TNK1 = settings: at 1 μM
# Method in brief: as §1
# RET(V804L) = settings: at 1 μM
# Method in brief: as §1
# ALK(L1196M) = settings: at 1 μM
# Method in brief: as §1
# DDR2 = settings: at 1 μM
# Method in brief: as §1
# ABL1-nonphosphorylated = settings: at 1 μM
# Method in brief: as §1
# TRKA = settings: at 1 μM
# Method in brief: as §1
# MUSK = settings: at 1 μM
# Method in brief: as §1
# [1] = test system: TYK2(JH2domain-pseudokinase); settings: for % Ctrl: TYK2(JH2domain-pseudokinase), at 1 μM; for Kd: read-out: TYK2(JH2 domain-pseudokinase) Kd
# Method in brief: (§2)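 Dissociation constants came from the amount of kinase captured on the solid support across a test compound concentration series. Captured kinase, T7 phage-fused or HEK-293-made and DNA-tagged, was read by qPCR after a 1 h room-temperature binding step.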
# RET(M918T) = settings: at 1 μM
# Method in brief: as §1
# PYK2 = settings: at 1 μM
# Method in brief: as §1
# [2] = test system: ABL1(Q252H)-phosphorylated; settings: at 1 μM
# Method in brief: as §1
# [3] = test system: ABL1(E255K)-phosphorylated; settings: at 1 μM
# Method in brief: as §1
# EPHA6 = settings: at 1 μM
# Method in brief: (§3)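 Competition binding format: a test compound at a single concentration displaces phage-tagged or DNA-tagged kinase from an immobilized affinity ligand. After washing, kinase is released with 0.5 μM free ligand (30 min, room temperature) and measured by qPCR. Data are given as % Ctrl.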
# FGFR4 = settings: at 1 μM
# Method in brief: as §1
# EGFR(G719S) = settings: at 1 μM
# Method in brief: as §1
# FLT3(D835Y) = settings: at 1 μM
# Method in brief: as §1
# EPHA5 = settings: at 1 μM
# Method in brief: as §3
# CSK = settings: at 1 μM
# Method in brief: as §1
# FAK = settings: at 1 μM
# Method in brief: as §1
# FES = settings: at 1 μM
# Method in brief: as §1
# [4] = test system: TYK2(JH1domain-catalytic); settings: for % Ctrl: TYK2(JH1domain-catalytic), at 1 μM; for Kd: read-out: TYK2(JH1 domain-catalytic) Kd
# Method in brief: as §2
# [5] = test system: JAK1(JH2domain-pseudokinase); settings: for % Ctrl: JAK1(JH2domain-pseudokinase), at 1 μM
# Method in brief: as §1
# INSR = settings: at 1 μM
# Method in brief: as §1
# TXK = settings: at 1 μM
# Method in brief: as §1
# KIT(D816V) = settings: at 1 μM
# Method in brief: as §1
# FGFR2 = settings: at 1 μM
# Method in brief: as §1
# TIE2 = settings: at 1 μM
# Method in brief: as §1
# [6] = test system: ABL1(M351T)-phosphorylated; settings: at 1 μM
# Method in brief: as §1
# [7] = test system: JAK3(JH1domain-catalytic); settings: for % Ctrl: JAK3(JH1domain-catalytic), at 1 μM; for Kd: read-out: JAK3(JH1 domain-catalytic) Kd
# Method in brief: as §2
# EGFR(L858R, T790M) = settings: at 1 μM
# Method in brief: as §3
# TRKC = settings: at 1 μM
# Method in brief: as §1
# EPHB2 = settings: at 1 μM
# Method in brief: as §1
# EGFR(G719C) = settings: at 1 μM
# Method in brief: as §1
# BLK = settings: at 1 μM
# Method in brief: as §1
# ERBB3 = settings: at 1 μM
# Method in brief: as §1
# ALK = settings: at 1 μM
# Method in brief: as §1
smiles,measurement,setting,value
"C[C@@H]1COCc2nn(C)cc2-c2cc(Cl)c3c(c2)/C(=C/c2[nH]ccc2C(=O)N1)C(=O)N3 [Cpd. 4, [3a(4)Z,10R]-20-chloro-10,15-dimethyl-10,11,13,15-tetrahydro-2H-1,17-(ethanediylidene)pyrazolo[4,3-m]dipyrrolo[3,2-f:3′,4′-i][1,4]oxazacyclopentadecine-3,8(5H,9H)-dione]",% Ctrl,LYN,87%
same,% Ctrl,ERBB4,100%
same,% Ctrl,FGFR1,75%
same,% Ctrl,TNK1,94%
same,% Ctrl,RET(V804L),95%
same,% Ctrl,ALK(L1196M),94%
same,% Ctrl,DDR2,79%
same,% Ctrl,ABL1-nonphosphorylated,84%
same,% Ctrl,TRKA,59%
same,% Ctrl,MUSK,98%
same,% Ctrl,[1],0.2%
same,Kd,[1],1.9 nM
same,% Ctrl,RET(M918T),98%
same,% Ctrl,PYK2,92%
same,% Ctrl,[2],89%
same,% Ctrl,[3],94%
same,% Ctrl,EPHA6,97%
same,% Ctrl,FGFR4,88%
same,% Ctrl,EGFR(G719S),96%
same,% Ctrl,FLT3(D835Y),96%
same,% Ctrl,EPHA5,100%
same,% Ctrl,CSK,100%
same,% Ctrl,FAK,96%
same,% Ctrl,FES,100%
same,% Ctrl,[4],48%
same,Kd,[4],1500 nM
same,% Ctrl,[5],0.25%
same,Kd,[5]; read-out: JAK1(JH2 domain-pseudokinase) Kd,29 nM
same,% Ctrl,INSR,81%
same,% Ctrl,TXK,78%
same,% Ctrl,KIT(D816V),100%
same,% Ctrl,FGFR2,99%
same,% Ctrl,TIE2,91%
same,% Ctrl,[6],94%
same,% Ctrl,[7],12%
same,Kd,[7],59 nM
same,% Ctrl,"EGFR(L858R, T790M)",77%
same,% Ctrl,TRKC,100%
same,% Ctrl,EPHB2,96%
same,% Ctrl,EGFR(G719C),93%
same,% Ctrl,BLK,100%
same,% Ctrl,ERBB3,76%
same,% Ctrl,ALK,100%
"Cc1cc2c([nH]1)/C=C1\C(=O)Nc3ccc(cc31)-c1c(nn(C)c1C)OCCCN(C)C2=O [Cpd. 1, [3a(4)Z]-6,9,15,16-tetramethyl-9,10,11,12-tetrahydro-15H-1,17-(ethanediylidene)pyrazolo[4,3-n]dipyrrolo[3,2-g:3′,4′-j][1,5]oxazacyclopentadecine-3,8(2H,5H)-dione]",% Ctrl,LYN,100%
same,% Ctrl,ERBB4,95%
same,% Ctrl,FGFR1,100%
same,% Ctrl,TNK1,100%
same,% Ctrl,RET(V804L),82%
same,% Ctrl,ALK(L1196M),89%
same,% Ctrl,DDR2,95%
same,% Ctrl,ABL1-nonphosphorylated,87%
same,% Ctrl,TRKA,67%
same,% Ctrl,MUSK,93%
same,% Ctrl,[1],1.5%
same,Kd,[1],220 nM
same,% Ctrl,RET(M918T),84%
same,% Ctrl,PYK2,100%
same,% Ctrl,[2],99%
same,% Ctrl,[3],92%
same,% Ctrl,EPHA6,94%
same,% Ctrl,FGFR4,95%
same,% Ctrl,EGFR(G719S),80%
same,% Ctrl,FLT3(D835Y),97%
same,% Ctrl,EPHA5,93%
same,% Ctrl,CSK,97%
same,% Ctrl,FAK,85%
same,% Ctrl,FES,92%
same,% Ctrl,[4],31%
same,Kd,[4],> 10000 nM
same,% Ctrl,[5],100%
same,% Ctrl,INSR,95%
same,% Ctrl,TXK,100%
same,% Ctrl,KIT(D816V),97%
same,% Ctrl,FGFR2,96%
same,% Ctrl,TIE2,95%
same,% Ctrl,[6],100%
same,% Ctrl,[7],81%
same,Kd,[7],> 10000 nM
same,% Ctrl,"EGFR(L858R, T790M)",89%
same,% Ctrl,TRKC,94%
same,% Ctrl,EPHB2,97%
same,% Ctrl,EGFR(G719C),81%
same,% Ctrl,BLK,87%
same,% Ctrl,ERBB3,100%
same,% Ctrl,ALK,87%
